We go through four compounds from patent US20060093553A1, “Cd26-based therapies for cancers and immune disease” (priority 2002, published 2006).

In assay [1] the test system is 340-4 mutant CD26-positive/DPPIV-positive Jurkat transfectant. Nature of the assay: Cell cycle analysis (propidium iodide staining). Particulars: 24 h, 340-4 transfectant. The format is cell-based, Human.
The subject of assay [2] is S630A Jurkat transfectants. Kind of assay: MTT uptake (cell growth) assay. The format is cell-based, Human. On the procedure:
(§1) Cell growth assay was performed as described previously (Hansen et al., 1989). Cells were incubated in microplates in the presence of culture media alone, culture media and […] (50 μg/ml), culture media and doxorubicin at the indicated concentrations, or culture media, […]), and doxorubicin at the indicated concentrations, for a total volume of 100 μl (50,000 cells/well). After 48 h of incubation at 37° C., 25 μl of MTT was added to the wells at a final concentration of 1 mg/ml. The microplates were then incubated for 2 h at 37° C., followed by the addition of 100 μl of extraction buffer. After overnight incubation at 37° C., A570/nm measurements at 570 nm were performed, with the SE of the triplicate wells being less than 15%. MTT Assay. Cell growth assay was performed as described previously (Aytac et al., 2001). […] Following 36-48 h of incubation at 37° C., 25 ul of MET was added to the wells at a final concentration of 1 mg/ml. The microplates were then incubated for 2 h at 37° C., followed by the addition of 100 ul of extraction buffer. Following overnight incubation at 37° C., OD measurements at 570 nm were performed, with the standard errors of the mean of the triplicate wells being less than 15%. Cytotoxicity index was calculated as follows: [formula]

Assay [3] deals with wtCD26 Jurkat transfectants. Kind of assay: MTT uptake (cell growth) assay. The format is cell-based, Human. On the procedure:
as §1

For assay [4], the system named is 340-4 Jurkat transfectants. Nature of the assay: MTT uptake (cell growth) assay. The format is cell-based, Human. The settings on record: 340-4 transfectants, similar to wtCD26; 48 h; FIG. 1.
Assay [5] relates to 340-4 Jurkat transfectants. Nature of the assay: Annexin V/PI apoptosis assay. The format is cell-based, Human. The method, then:
(§2) Annexin/PI Assays. Exposure of phosphatidylserine residues was quantified by surface annexin V staining as previously described (Vermes et al., 1995; […] and Pollard, 1994; Martin et al., 1995)). Briefly, cells were washed in binding buffer (10 mM HEPES, pH 7.4, 2.5 mM CaCl2, 140 mM NaCl), resuspended in 100 μl and incubated with 0.5 μl/ml annexin V-fluoresencein isothiocyanate (FITC) and 2.5 μg/ml propiodium iodide (PI) for 15 minutes in the dark. Cells were then washed again and resuspended in 400 μl of binding buffer, then flow cytometric analysis (FACScan; Becton Dickinson) was performed. Ten thousand cells were acquired per sample using Cellquest software and data were analyzed with the Paint-a-gate software (Becton Dickinson).

Assay [6] concerns wtCD26 Jurkat transfectants. Kind of assay: Annexin V/PI apoptosis assay. The format is cell-based, Human. The method, then:
as §2

In assay [7] the test system is nontransfected control (parental) Jurkat cells. Kind of assay: Cell cycle analysis (propidium iodide staining). Particulars: 24 h; for % G0/G1 / % G2/M / % S: Parental Jurkat; for Percentage G0G1 / Percentage G2/M / Percentage S: Control Jurkat.
Assay [8] relates to S630A mutant CD26-positive/DPPIV-negative Jurkat transfectant. Kind of assay: Cell cycle analysis (propidium iodide staining). The settings on record: 24 h.
Assay [9] relates to wild-type CD26-transfected Jurkat cell lines (wtCD26). Nature of the assay: Cell cycle analysis (propidium iodide staining). The settings on record: 24 h; for % G0/G1 / % G2/M / % S: wtCD26 transfectant; for Percentage G0G1 / Percentage G2/M / Percentage S: WtCD26 transfectant.
For assay [10], the target named is T1, M6P/IGF-IIR on monocytes (Homo sapiens, UniProt P11717).
T1 construct: endogenous in cells; host or cells: purified peripheral blood monocytes
T1 sequence (P11717 41-2491): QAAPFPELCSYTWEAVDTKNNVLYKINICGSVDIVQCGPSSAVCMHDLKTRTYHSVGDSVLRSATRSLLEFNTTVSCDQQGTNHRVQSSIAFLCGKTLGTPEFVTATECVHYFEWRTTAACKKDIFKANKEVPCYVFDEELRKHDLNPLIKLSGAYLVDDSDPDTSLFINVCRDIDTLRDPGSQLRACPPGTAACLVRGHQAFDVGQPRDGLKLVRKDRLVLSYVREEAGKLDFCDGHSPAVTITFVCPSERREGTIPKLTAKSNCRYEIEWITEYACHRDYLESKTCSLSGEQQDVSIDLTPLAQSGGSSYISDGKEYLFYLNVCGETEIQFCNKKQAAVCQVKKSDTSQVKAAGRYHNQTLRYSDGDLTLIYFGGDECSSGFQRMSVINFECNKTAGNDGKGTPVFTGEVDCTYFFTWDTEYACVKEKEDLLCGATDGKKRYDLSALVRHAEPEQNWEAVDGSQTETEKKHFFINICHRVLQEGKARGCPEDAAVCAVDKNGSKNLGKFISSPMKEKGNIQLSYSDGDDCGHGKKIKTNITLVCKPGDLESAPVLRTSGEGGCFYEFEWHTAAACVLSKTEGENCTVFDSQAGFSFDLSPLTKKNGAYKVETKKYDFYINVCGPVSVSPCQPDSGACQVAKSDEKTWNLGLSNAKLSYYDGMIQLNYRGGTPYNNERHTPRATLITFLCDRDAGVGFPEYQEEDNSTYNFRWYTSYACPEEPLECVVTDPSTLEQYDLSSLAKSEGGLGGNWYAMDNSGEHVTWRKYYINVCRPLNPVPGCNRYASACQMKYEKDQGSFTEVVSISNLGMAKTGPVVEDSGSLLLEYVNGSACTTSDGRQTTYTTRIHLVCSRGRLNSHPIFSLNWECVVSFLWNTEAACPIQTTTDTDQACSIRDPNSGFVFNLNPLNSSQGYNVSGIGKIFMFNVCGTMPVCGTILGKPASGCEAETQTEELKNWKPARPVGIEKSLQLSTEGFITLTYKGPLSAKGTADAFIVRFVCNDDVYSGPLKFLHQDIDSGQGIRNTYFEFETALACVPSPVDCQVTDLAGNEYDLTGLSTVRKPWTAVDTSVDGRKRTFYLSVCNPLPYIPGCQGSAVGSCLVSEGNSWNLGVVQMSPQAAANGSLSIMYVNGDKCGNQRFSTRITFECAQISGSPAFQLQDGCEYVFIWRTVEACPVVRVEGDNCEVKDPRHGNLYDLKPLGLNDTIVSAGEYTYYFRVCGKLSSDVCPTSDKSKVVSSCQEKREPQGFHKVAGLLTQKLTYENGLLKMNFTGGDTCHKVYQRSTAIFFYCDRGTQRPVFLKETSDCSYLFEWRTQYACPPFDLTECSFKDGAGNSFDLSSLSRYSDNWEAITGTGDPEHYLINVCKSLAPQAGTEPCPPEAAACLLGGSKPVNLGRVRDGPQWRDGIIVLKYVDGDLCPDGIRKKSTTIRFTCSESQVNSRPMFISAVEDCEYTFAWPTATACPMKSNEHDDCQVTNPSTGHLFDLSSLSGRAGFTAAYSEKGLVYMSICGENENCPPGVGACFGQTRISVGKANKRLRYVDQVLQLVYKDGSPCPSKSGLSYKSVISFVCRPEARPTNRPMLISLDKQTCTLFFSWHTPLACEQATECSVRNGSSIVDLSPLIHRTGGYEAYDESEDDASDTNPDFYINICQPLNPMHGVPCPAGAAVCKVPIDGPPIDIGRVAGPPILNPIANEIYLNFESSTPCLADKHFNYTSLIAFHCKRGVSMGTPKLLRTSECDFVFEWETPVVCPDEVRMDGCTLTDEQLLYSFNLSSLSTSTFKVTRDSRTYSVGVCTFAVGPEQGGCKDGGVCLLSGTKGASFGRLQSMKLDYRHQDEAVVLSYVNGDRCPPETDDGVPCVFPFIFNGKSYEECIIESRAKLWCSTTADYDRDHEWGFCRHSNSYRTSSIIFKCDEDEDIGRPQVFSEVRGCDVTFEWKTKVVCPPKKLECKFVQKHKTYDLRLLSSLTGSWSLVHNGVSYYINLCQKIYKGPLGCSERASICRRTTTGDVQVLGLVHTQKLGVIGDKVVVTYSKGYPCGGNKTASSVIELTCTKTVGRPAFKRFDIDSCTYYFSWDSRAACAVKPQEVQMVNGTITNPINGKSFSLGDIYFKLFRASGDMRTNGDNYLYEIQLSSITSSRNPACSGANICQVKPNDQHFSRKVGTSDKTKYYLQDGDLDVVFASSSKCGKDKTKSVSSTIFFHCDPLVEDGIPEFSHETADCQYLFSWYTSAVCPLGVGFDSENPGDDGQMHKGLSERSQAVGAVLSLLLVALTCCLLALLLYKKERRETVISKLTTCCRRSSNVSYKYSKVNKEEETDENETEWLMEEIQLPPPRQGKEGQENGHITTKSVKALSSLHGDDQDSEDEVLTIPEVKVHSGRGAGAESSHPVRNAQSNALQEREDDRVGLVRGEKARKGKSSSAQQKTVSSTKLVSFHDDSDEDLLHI
Nature of the assay: Inhibition of sCD26 uptake into monocytes by M6P (FACS). The format is cell-based. The settings on record: M6P 0, 0.1, 1.0, and 10 μM; concentration dependent; with or without TT; FIGS. 11A, 11B. The method, then: In studies assessing the expression of CD80, CD86, and HLA-DR on purified monocytes (0.5×10^6 monocytes/well), monocytes were preincubated with or without TT (0.5 μg/ml) for 16 h. Following incubation with sCD26 (0.5 μg/ml) for 24 h, FITC-conjugated CD80, CD86, and HLA-DR mAbs (10 μg/ml) were used with PE-conjugated anti-CD14 (10 μg/ml) to gate exclusively on the monocyte population. In experiments assessing the effect of M6P on cellular uptake of sCD26, purified monocytes (0.5×10^6 monocytes/well) were incubated with the appropriate concentration of M6P in the presence or absence of sCD26-OG for 24 h in standard medium. Cells were then washed twice in ice-cold PBS, followed by incubation for 2 min in acidic PBS (pH 3.0) to strip any sCD26-OG attached to the cell surface. Cells were washed in ice-cold PBS and were incubated with mouse Ig isotypes (1 μg/ml) to block nonspecific binding; this was followed by reaction with PE-conjugated anti-CD14 (10 μg/ml) to gate exclusively on monocyte population.

The subject of assay [11] is wtCD26 Jurkat transfectant. Kind of assay: Immunoblotting of etoposide-induced apoptosis markers after z-LEHD-fmk preincubation. The format is cell-based, Human. On the procedure:
SDS-PAGE and Immunoblotting. After incubation at 37° C. in culture media and etoposide or doxorubicin at the concentrations and duration indicated, cells were harvested from wells, washed with PBS, and lysed in lysis buffer consisting of 1% NP-40, 0.5% deotxycolate, 0.1% SDS, 1 mM phenyhmethylsulfonyl fluoride, 1 mM benzamidine, 10 μg/ml aprotinin, 50 μg/ml leupeptin, 10 μg/ml soybean trypsin inhibitor and 1 μg/ml pepstatin. After incubating on ice for 5 min, nuclei were removed by centrifugation and supernatants were collected as whole cell lysates. Sample buffer (4×) consisting of 20% glycerol, 4.6% SDS, 0.5 M Tris (pH 6.8), 4% β-mercaptoethanol, and 0.2% bromophenol blue was added to the appropriate aliquots of supernatants. After boiling, protein samples were submitted to SDS-PAGE analysis on an 8% gel under standard conditions using a mini-Protean II system (Bio-Rad). For immunoblotting, the proteins were transferred onto nitrocellulobse (Immobilon-P; Millipore). After overnight. blocking at 4° C. in blocking solution consisting of 0.1% Tween 20 and 5% BSA in Tris-buffered saline, membranes were blotted with the appropriate primary antibodies diluted in blocking solution for 1 hour at room temperature. Membranes were then washed with blocking solution, and appropriate secondary antibodies diluted in blocking solution were then applied for 1 hour at room temperature. Secondary antibodies were goat antimouse or goat antirabbit horseradish peroxidase conjugates (Dako). Membranes were then washed with blocking solution, and proteins were subsequently detected by chemiluininescence (Amersham Pharmacia Biotech).
(In general: A western blot detects proteins with antibodies after separation by electrophoresis.)

Setting [12] is: AIM V serum-free media, Doxorubicin 0.10 uM.
[13] abbreviates: AIM V serum-free media, Doxorubicin 0.25 uM.
Setting [14] is: Doxorubicin 0.01 μM, S63A transfectant.
Setting [15] is: Doxorubicin 0.05 μM, S630A transfectant.
[16] abbreviates: AIM V serum-free media, Etoposide 0.25 uM.
[17] abbreviates: AIM V serum-free media, Etoposide 0.50 uM.
Setting [18] is: Etoposide 0.10 uM, S630A transfectant.
Setting [19] is: Etoposide 0.25 uM, S630A transfectant.
Where [20] appears, read: 2 hours preincubation with z-LEHD-fmk, then 3 μM etoposide 48 hours, FIG. 22B.

As to `COc1cccc2c1C(=O)c1c(O)c3c(c(O)c1C2=O)C[C@@](O)(C(=O)CO)C[C@@H]3O[C@H]1C[C@H](N)[C@H](O)[C@H](C)O1` [Doxorubicin], the “Percentage G0G1” value in [1] (Doxorubicin 0.01 μM) came out at 25%; in [1] (Doxorubicin 0.05 μM), 11%; in [7] (Doxorubicin 0.01 μM), 40%; in assay [7] (Doxorubicin 0.05 μM) it was 32%; in [8] (setting [14]) it was 33%; in [8] (setting [15]), 27%. In addition, the “Percentage G0G1” value turned out to be 11% in assay [9] (Doxorubicin 0.01 μM) and 6% in [9] (Doxorubicin 0.05 μM). Further, the “Percentage G2/M” value in assay [1] (Doxorubicin 0.01 μM) stood at 50%; in assay [1] (Doxorubicin 0.05 μM), 78%; in assay [7] (Doxorubicin 0.01 μM), 34%; in [7] (Doxorubicin 0.05 μM), 37%; in assay [8] (setting [14]) it was 35%; in assay [8] (setting [15]) it was 38%. Also, the “Percentage G2/M” value worked out at 62% in [9] (Doxorubicin 0.01 μM) and 69% in [9] (Doxorubicin 0.05 μM). The “Percentage S” value is given as 25% in assay [1] (Doxorubicin 0.01 μM); 11% in assay [1] (Doxorubicin 0.05 μM); 26% in [7] (Doxorubicin 0.01 μM); 31% in assay [7] (Doxorubicin 0.05 μM); 32% in assay [8] (setting [14]); 35% in assay [8] (setting [15]). The “Percentage S” value in [9] (Doxorubicin 0.01 μM) is listed as 27%; in assay [9] (Doxorubicin 0.05 μM), 25%. The “doxorubicin-mediated growth inhibition (MTT), sensitivity” value is recorded as “less sensitive” in assay [2] (S630A transfectants, 48 h, FIG. 1); “markedly increased sensitivity” in assay [3] (wtCD26 compared with parental (control) or vector only (neo) Jurkat cells, 48 h, FIG. 1); “greater doxorubicin sensitivity” in [4]. The “doxorubicin-induced apoptosis (Annexin V/PI)” value in [5] (340-4 compared with parental or S630A Jurkat, 16 hours, FIG. 15B) is reported as “greater apoptosis”; in [6] (wtCD26 compared with parental or S630A Jurkat, 16 hours, FIG. 15B), “greater apoptosis”. Besides, the “% G0/G1” value in assay [7] (setting [12]) is listed as 43%; in assay [7] (setting [13]) it was 36%; in [9] (setting [12]), 31%; in assay [9] (setting [13]), 14%. Also, the “% G2/M” value in assay [7] (setting [12]) is listed as 27%; in assay [7] (setting [13]) it was 41%; in [9] (setting [12]), 49%; in assay [9] (setting [13]), 74%. The “% S” value in assay [7] (setting [12]) came to 30%; in [7] (setting [13]) it was 23%; in assay [9] (setting [12]), 20%; in [9] (setting [13]), 12%.

In the case of `COc1cc([C@@H]2c3cc4c(cc3[C@@H](O[C@@H]3O[C@@H]5CO[C@@H](C)O[C@H]5[C@H](O)[C@H]3O)[C@H]3COC(=O)[C@H]23)OCO4)cc(OC)c1O` [Etoposide], the “etoposide-mediated growth inhibition (MTT), sensitivity” value in [2] (S630A compared to wtCD26 transfectants, FIG. 5) is “less sensitive”; in [3] (wtCD26 compared to parental cells, FIG. 5), “significantly increased sensitivity”. In addition, the “etoposide-induced apoptosis (Annexin V/PI)” value in assay [5] (340-4 transfectants, similar to wtCD26, 14 hours, FIG. 15A) was “higher level of drug-induced apoptosis”; in [6] (wtCD26 vs S630A or parental control Jurkat, 14 hours, FIG. 15A) it was “more sensitive to the apoptotic effect”. The “% G0/G1” value in [7] (setting [16]) came to 51%; in assay [7] (setting [17]), 36%; in assay [7] (Etoposide 0.10 uM), 41%; in assay [7] (Etoposide 0.25 uM), 27%; in assay [8] (setting [18]) it was 34%; in assay [8] (setting [19]), 22%. In addition, the “% G0/G1” value was determined as 34% in assay [9] (setting [16]), 18% in assay [9] (setting [17]), 25% in [9] (Etoposide 0.10 uM) and 12% in [9] (Etoposide 0.25 uM). Moreover, the “% G2/M” value in [7] (setting [16]) worked out at 19%; in assay [7] (setting [17]), 36%; in assay [7] (Etoposide 0.10 uM) it was 21%; in assay [7] (Etoposide 0.25 uM), 41%; in assay [8] (setting [18]), 29%; in assay [8] (setting [19]) it was 48%. The “% G2/M” value in [9] (setting [16]) was 43%; in assay [9] (setting [17]), 64%; in [9] (Etoposide 0.10 uM), 56%; in assay [9] (Etoposide 0.25 uM) it was 69%. The “% S” value was 30% in assay [7] (setting [16]); 28% in assay [7] (setting [17]); 38% in assay [7] (Etoposide 0.10 uM); 32% in [7] (Etoposide 0.25 uM); 37% in assay [8] (setting [18]); 30% in assay [8] (setting [19]). The “% S” value in assay [9] (setting [16]) was 23%; in [9] (setting [17]) it was 18%; in assay [9] (Etoposide 0.10 uM), 19%; in assay [9] (Etoposide 0.25 uM), 19%.

Take `O=P(O)(O)OC[C@H]1OC(O)[C@@H](O)[C@@H](O)[C@@H]1O` (some centres unmarked) [M6P]: in assay [10], the “uptake of sCD26 into monocytes” value is given as “inhibited the uptake of sCD26 into monocytes”.

On to z-LEHD-fmk, for which the “etoposide-mediated cleavage of pro-caspase-9” value in assay [11] (2 hours preincubation with z-LEHD-fmk at varying doses, then 3 μM etoposide 16 hours, FIG. 18) was “inhibited by z-LEHD-fink in dose-dependent manner”. The “cleavage of pro-caspase-3 and PARP” value in [11] (2 hours preincubation with z-LEHD-fmk, then 3 μM etoposide 16 hours, FIG. 18) is listed as “significantly reduced”. Also, in [11] (setting [20]), the “etoposide-induced 32 kDa DR5 band” value is recorded as “no longer detectable” and the “etoposide-induced increase in the 58 kDa DR5 band” value is “significantly attenuated”.
